In patent US12679843B2, “Pyrrolopyrimidine amines as complement inhibitors” (BioCryst Pharmaceuticals, Inc., priority 2020, dated 2026):

Each molecule was assayed against Factor D (Homo sapiens, UniProt P00746) (assay: Factor D esterolytic assay (Z-Lys-SBzl thioester substrate, DTNB, 405 nm)). Settings: substrate Z-Lys-SBzl 1.29 mM, 100 mM HEPES, 500 mM NaCl, pH 7.5, 10% DMSO, tested a minimum of three times.
Assay type: biochemical
Procedure, shortened: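 Run in pH 7.5 HEPES (100 mM) with 500 mM NaCl and 10% DMSO, with compound preincubated at room temperature or not before adding 1.29 mM Z-Lys-SBzl. Free thiol released by Factor D reacts with DTNB, and rate is followed at 405 nm minus 690 nm over 600 s. IC50 derives from rate-based inhibition, minimum three replicates.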

Factor D, sequence (P00746 26-253): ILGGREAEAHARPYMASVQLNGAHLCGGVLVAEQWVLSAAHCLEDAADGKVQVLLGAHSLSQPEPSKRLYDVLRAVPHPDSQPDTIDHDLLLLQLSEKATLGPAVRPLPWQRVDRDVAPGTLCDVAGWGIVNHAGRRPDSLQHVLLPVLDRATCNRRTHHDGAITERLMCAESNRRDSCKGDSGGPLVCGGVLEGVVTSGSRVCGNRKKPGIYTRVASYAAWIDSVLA

Row | SMILES | IC50 [nM]
1 | Nc1ncnc2c1c1cccc(F)c1n2CC(=O)N1[C@@H]2C[C@@H]2C[C@H]1C(=O)Nc1cccc(Br)n1 [Compound 51g, (1R,3S,5R)-2-(2-(4-amino-8-fluoro-9H-pyrimido[4,5-b]indol-9-yl)acetyl)-N-(6-bromopyridin-2-yl)-2-azabicyclo[3.1.0]hexane-3-carboxamide] | < 100
2 | Nc1ncnc2c1c1ccc(Br)cc1n2CC(=O)N1[C@@H]2C[C@@H]2C[C@H]1C(=O)Nc1cccc(Br)n1 [Compound 52f, (1R,3S,5R)-2-(2-(4-amino-7-bromo-9H-pyrimido[4,5-b]indol-9-yl)acetyl)-N-(6-bromopyridin-2-yl)-2-azabicyclo[3.1.0]hexane-3-carboxamide] | < 100
3 | Nc1ncnc2c1c1cc(C(F)(F)F)ccc1n2CC(=O)N1CC2(CC2)C[C@H]1C(=O)Nc1cccc(Br)n1 [Compound 53d, (S)-5-(2-(4-amino-6-(trifluoromethyl)-9H-pyrimido[4,5-b]indol-9-yl)acetyl)-N-(6-bromopyridin-2-yl)-5-azaspiro[2.4]heptane-6-carboxamide] | 100 to 1000
4 | COc1cccc2c3c(N)ncnc3n(CC(=O)N3[C@@H]4C[C@@H]4C[C@H]3C(=O)Nc3cccc(Br)n3)c12 [Compound 54g, (1R,3S,5R)-2-(2-(4-amino-8-methoxy-9H-pyrimido[4,5-b]indol-9-yl)acetyl)-N-(6-bromopyridin-2-yl)-2-azabicyclo[3.1.0]hexane-3-carboxamide] | < 100
5 | Cc1cccc2c3c(N)ncnc3n(CC(=O)N3[C@H](C(=O)Nc4cccc(Br)n4)C[C@@]4(C)C[C@@H]34)c12 [Compound 55a, (1R,3S,5R)-2-(2-(4-amino-8-methyl-9H-pyrimido[4,5-b]indol-9-yl)acetyl)-N-(6-bromopyridin-2-yl)-5-methyl-2-azabicyclo[3.1.0]hexane-3-carboxamide] | < 100
6 | Cc1cccc2c1c1c(N)ncnc1n2CC(=O)N1[C@@H]2C[C@@H]2C[C@H]1C(=O)Nc1cccc(Br)n1 [Compound 56g, (1R,3S,5R)-2-(2-(4-amino-5-methyl-9H-pyrimido[4,5-b]indol-9-yl)acetyl)-N-(6-bromopyridin-2-yl)-2-azabicyclo[3.1.0]hexane-3-carboxamide] | 100 to 1000
7 | COc1cccc2c1c1c(N)ncnc1n2CC(=O)N1[C@@H]2C[C@@H]2C[C@H]1C(=O)Nc1cccc(Br)n1 [Compound 57g, (1R,3S,5R)-2-(2-(4-amino-5-methoxy-9H-pyrimido[4,5-b]indol-9-yl)acetyl)-N-(6-bromopyridin-2-yl)-2-azabicyclo[3.1.0]hexane-3-carboxamide] | < 100
8 | CC(=O)c1ccc2c(c1)c1c(N)ncnc1n2CC(=O)N1[C@@H]2C[C@@H]2C[C@H]1C(=O)Nc1cccc(Br)n1 [Compound 58c, (1R,3S,5R)-2-(2-(6-acetyl-4-amino-9H-pyrimido[4,5-b]indol-9-yl)acetyl)-N-(6-bromopyridin-2-yl)-2-azabicyclo[3.1.0]hexane-3-carboxamide] | < 100
9 | C=Cc1ccc2c(c1)c1c(N)ncnc1n2CC(=O)N1[C@@H]2C[C@@H]2C[C@H]1C(=O)Nc1cccc(Br)n1 [Compound 59c, (1R,3S,5R)-2-(2-(4-amino-6-vinyl-9H-pyrimido[4,5-b]indol-9-yl)acetyl)-N-(6-bromopyridin-2-yl)-2-azabicyclo[3.1.0]hexane-3-carboxamide] | < 100
10 | NC(=O)c1ccc2c(c1)c1c(N)ncnc1n2CC(=O)N1[C@@H]2C[C@@H]2C[C@H]1C(=O)Nc1cccc(Br)n1 [Compound 60c, 4-amino-9-(2-((1R,3S,5R)-3-((6-bromopyridin-2-yl)carbamoyl)-2-azabicyclo[3.1.0]hexan-2-yl)-2-oxoethyl)-9H-pyrimido[4,5-b]indole-6-carboxamide] | < 100
11 | Nc1ccc2c(c1)c1c(N)ncnc1n2CC(=O)N1[C@@H]2C[C@@H]2C[C@H]1C(=O)Nc1cccc(Br)n1 [Compound 61a, (1R,3S,5R)—N-(6-bromopyridin-2-yl)-2-(2-(4,6-diamino-9H-pyrimido[4,5-b]indol-9-yl)acetyl)-2-azabicyclo[3.1.0]hexane-3-carboxamide] | < 100
12 | Nc1ncnc2c1c1cc(-c3ccccc3)ccc1n2CC(=O)N1[C@@H]2C[C@@H]2C[C@H]1C(=O)Nc1cccc(Br)n1 [Compound 62c, (1R,3S,5R)-2-(2-(4-amino-6-phenyl-9H-pyrimido[4,5-b]indol-9-yl)acetyl)-N-(6-bromopyridin-2-yl)-2-azabicyclo[3.1.0]hexane-3-carboxamide] | < 100
13 | NCc1ccc2c(c1)c1c(N)ncnc1n2CC(=O)N1[C@@H]2C[C@@H]2C[C@H]1C(=O)Nc1cccc(Br)n1 [Compound 63d, (1R,3S,5R)-2-(2-(4-amino-6-(aminomethyl)-9H-pyrimido[4,5-b]indol-9-yl)acetyl)-N-(6-bromopyridin-2-yl)-2-azabicyclo[3.1.0]hexane-3-carboxamide] | < 100
14 | Nc1ncnc2c1ccn2CC(=O)N1C[C@H](F)C[C@H]1C(=O)NCc1cccc(Cl)c1F [Compound 64a, (2S,4R)-1-(2-(4-amino-7H-pyrrolo[2,3-d]pyrimidin-7-yl)acetyl)-N-(3-chloro-2-fluorobenzyl)-4-fluoropyrrolidine-2-carboxamide] | < 100
15 | Nc1ncnn2c(CC(=O)N3C[C@H](F)C[C@H]3C(=O)NCc3cccc(Cl)c3F)ccc12 [Compound 65a, (2S,4R)-1-(2-(4-aminopyrrolo[2,1-f][1,2,4]triazin-7-yl)acetyl)-N-(3-chloro-2-fluorobenzyl)-4-fluoropyrrolidine-2-carboxamide] | < 100
16 | Nc1ncnn2c(CC(=O)N3[C@@H]4C[C@@H]4C[C@H]3C(=O)NCc3cccc(Cl)c3F)ccc12 [Compound 66b, (1R,3S,5R)-2-(2-(4-aminopyrrolo[2,1-f][1,2,4]triazin-7-yl)acetyl)-N-(3-chloro-2-fluorobenzyl)-2-azabicyclo[3.1.0]hexane-3-carboxamide] | 100 to 1000
17 | C[C@@]12C[C@@H](C(=O)NCc3cccc(Cl)c3F)N(C(=O)Cn3cnc4c(N)ncnc43)[C@@H]1C2 [Compound 67c, (1R,3S,5R)-2-(2-(6-amino-9H-purin-9-yl)acetyl)-N-(3-chloro-2-fluorobenzyl)-5-methyl-2-azabicyclo[3.1.0]hexane-3-carboxamide] | 100 to 1000
18 | Cc1ccc(Br)nc1NC(=O)[C@@H]1C[C@@H](F)CN1C(=O)Cn1cnc2c(N)ncnc21 [Compound 68a, (2S,4R)-1-(2-(6-amino-9H-purin-9-yl)acetyl)-N-(6-bromo-3-methylpyridin-2-yl)-4-fluoropyrrolidine-2-carboxamide] | 100 to 1000
19 | Nc1ncnn2c(CC(=O)N3C[C@H](F)C[C@H]3C(=O)Nc3cccc(Br)n3)ccc12 [Compound 69a, (2S,4R)-1-(2-(4-aminopyrrolo[2,1-f][1,2,4]triazin-7-yl)acetyl)-N-(6-bromopyridin-2-yl)-4-fluoropyrrolidine-2-carboxamide] | 100 to 1000
20 | Nc1ncnn2c(CC(=O)N3[C@@H]4C[C@@H]4C[C@H]3C(=O)Nc3cccc(Br)n3)ccc12 [Compound 70a, (1R,3S,5R)-2-(2-(4-aminopyrrolo[2,1-f][1,2,4]triazin-7-yl)acetyl)-N-(6-bromopyridin-2-yl)-2-azabicyclo[3.1.0]hexane-3-carboxamide] | 100 to 1000
21 | C[C@@]12C[C@@H](C(=O)Nc3cccc(Br)n3)N(C(=O)Cc3ccc4c(N)ncnn34)[C@@H]1C2 [Compound 71a, (1R,3S,5R)-2-(2-(4-aminopyrrolo[2,1-f][1,2,4]triazin-7-yl)acetyl)-N-(6-bromopyridin-2-yl)-5-methyl-2-azabicyclo[3.1.0]hexane-3-carboxamide] | 100 to 1000
22 | Cc1ccc(Br)nc1NC(=O)[C@@H]1C[C@@]2(C)C[C@H]2N1C(=O)Cc1ccc2c(N)ncnn12 [Compound 72a, (1R,3S,5R)-2-(2-(4-aminopyrrolo[2,1-f][1,2,4]triazin-7-yl)acetyl)-N-(6-bromo-3-methylpyridin-2-yl)-5-methyl-2-azabicyclo[3.1.0]hexane-3-carboxamide] | 100 to 1000
23 | C[C@@]12C[C@@H](C(=O)Nc3cccc(Br)n3)N(C(=O)Cn3ccc4c(N)ncnc43)[C@@H]1C2 [Compound 73a, (1R,3S,5R)-2-(2-(4-amino-7H-pyrrolo[2,3-d]pyrimidin-7-yl)acetyl)-N-(6-bromopyridin-2-yl)-5-methyl-2-azabicyclo[3.1.0]hexane-3-carboxamide] | < 100
24 | Cc1ccc(Br)nc1NC(=O)[C@@H]1C[C@@]2(C)C[C@H]2N1C(=O)Cn1ccc2c(N)ncnc21 [Compound 74a, (1R,3S,5R)-2-(2-(4-amino-7H-pyrrolo[2,3-d]pyrimidin-7-yl)acetyl)-N-(6-bromo-3-methylpyridin-2-yl)-5-methyl-2-azabicyclo[3.1.0]hexane-3-carboxamide] | 100 to 1000
25 | CNc1ncnc2c1cnn2CC(=O)N1CCC[C@H]1C(=O)Nc1cccc(Br)n1 [Compound 75d, (S)—N-(6-bromopyridin-2-yl)-1-(2-(4-(methylamino)-1H-pyrazolo[3,4-d]pyrimidin-1-yl)acetyl)pyrrolidine-2-carboxamide] | > 1000
26 | CNc1ncnc2c1cnn2CC(=O)N1CCC[C@H]1C(=O)NCc1cccc(Cl)c1F [Compound 76b, (S)—N-(3-chloro-2-fluorobenzyl)-1-(2-(4-(methylamino)-1H-pyrazolo[3,4-d]pyrimidin-1-yl)acetyl)pyrrolidine-2-carboxamide] | > 1000
27 | Nc1ncnc2c1cnn2CC(=O)N1CCC[C@H]1C(=O)Nc1cccc(Br)n1 [Compound 77b, (S)-1-(2-(4-amino-1H-pyrazolo[3,4-d]pyrimidin-1-yl)acetyl)-N-(6-bromopyridin-2-yl)pyrrolidine-2-carboxamide] | > 1000
28 | Nc1ncnc2c1cnn2CC(=O)N1CCC[C@H]1C(=O)NCc1cccc(Cl)c1F [Compound 78a, (S)-1-(2-(4-amino-1H-pyrazolo[3,4-d]pyrimidin-1-yl)acetyl)-N-(3-chloro-2-fluorobenzyl)pyrrolidine-2-carboxamide] | 100 to 1000
